According to patent publication US11684594B2, “Antifungal prophylaxis for cornea” (PRESIDENT AND FELLOWS OF HARVARD COLLEGE, priority 2020, dated 2023):
“Also recorded” adds a separate entry of the source. Read-outs that look alike come from different tables or passages of the source.

Experiments:
[1] = tested on: Candida albicans (ATCC 24433), Fusarium solani (ATCC MYA-3636), and Aspergillus fumigatus (ATCC MYA-3626); test: In vitro antifungal testing, statements not resolved by species; assay type: cell-based; conditions: species not resolved; for Antifungal / fungicidal activity in vitro: agents at eye-drop or stated concentration; for Efficacy/toxicity ratio, overall rank: fungicidal activity vs HCLE cytotoxicity
Procedure: Several commonly used antibiotics were tested in vitro against Candida albicans (ATCC 24433), Fusarium solani (ATCC MYA-3636), and Aspergillus fumigatus (ATCC MYA-3626). Time kill activity and minimum inhibitory concentrations (MIC) were determined. Also the antiseptics benzalkonium chloride (BAK), povidone-iodine (PI), and ionic liquids (ILs) consisting of a 1:1 mixture of choline and undecanoic acid, were tested. Toxicity was assayed in vitro on cultures of human corneal epithelial cells, subjected to Trypan Blue staining. Adhesion and tissue invasion experiments were also carried out, with or without γ-irradiation, and by analysis with fluorescent microscopy.
(§1) In Vitro Time Kill Tests. Microtiter time kill tests were carried out in vitro according to the published CLSI methods (M27-A2).^22

C. albicans (ATCC 24433) = test: In vitro time kill test, yeast; assay type: cell-based, Candida albicans; conditions: for Reduction in viable colonies: FIG. 1A, full strength; for Ratio fungicidal activity/cytotoxicity: FIG. 3, # of log10 reduction / fold-change in Trypan Blue staining vs PBS (HCLE), 1 min contact, C. albicans
Procedure: as §1
The inoculum was prepared by adjustment of the optical density at 600 nm (OD600) to 1.0 (corresponding to approximately 1×10^6 CFU/mL), and dilution by 1:10 in the final solution. To confirm the starting inoculum size, yeasts were plated […] and colonies counted after growth for 24 hrs at 37° C. The test solutions were neutralized at each time point by ten-fold dilution in Dey-Engley neutralizing broth (Sigma-Aldrich; St Louis, Mo.), and serially track diluted (PMID: 9343684) on Sabouraud dextrose agar (six serial 1:10 dilutions, 0.01 mL each) in technical triplicate. Colonies were counted and recorded following aerobic incubation for 24 hrs at 37° C.
(§2) To investigate the fungicidal activity of various antibiotics and antimicrobials, the reduction in fungal load after short contact times (0-15 min, FIGS. 2-3), to account for the effect of rapid dilution by the tear film, as occurs in patients after topical instillation, was measured.^23 The detection limit for time kill tests was approximately 100 CFU/mL for C. albicans, and 1 CFU/mL for F. solani and A. fumigatus (corresponding to a ≥3 log difference from the starting inoculum). 20-300 cells were considered a reliable counting range per dilution, and values were averaged when more than one dilution in the same plate were within this range.

[2] = tested on: human corneal-limbal epithelial cells (HCLE); assay type: cell-based; conditions: for Cytotoxicity / toxicity: HCLE cells, post-exposure Trypan blue staining; for Trypan Blue staining (% stained area per image) compared to control treatment TX-100 (1%): FIG. 2A, confluent HCLE monolayers, 1 min of contact, BAK 40 µg/mL, PI 0.5%, #3-IL 10 mM
Procedure: In Vitro Toxicity Tests. Trypan Blue assays for toxicity of various antimicrobial agents were conducted using human corneal cells. Telomerase-immortalized human corneal-limbal epithelial cells (HCLE) were thawed at 37° C. and quickly transferred to a sterile T75 cell culture flask. Cells were grown in keratinocyte serum-free medium (KSFM; Gibco™; Thermofisher Scientific; Waltham, Mass.) supplemented with bovine pituitary extract (25 μg/mL), epidermal growth factor (0.2 ng/mL), calcium chloride (0.4 mM CaCl2[…]2H2O; Sigma-Aldrich; St Louis, Mo.), and 1× penicillin/streptomycin, at 37° C. with 5% CO2. Once cells were confluent, they were passaged following trypsinization in 12- or 24-well plates. After incubation with Trypsin-EDTA (0.05%, Gibco™; Thermofisher Scientific; Waltham, Mass.) for 5-10 min at 37° C. with 5% CO2, the reaction was stopped with an equivalent volume of neutralizing medium (Dulbecco's Modified Eagle Medium/Nutrient Mixture F-12, DMEM/F-12, with HEPES and 10% newborn calf serum), centrifuged at 5,000×g for 5 min, and re-suspended in supplemented KSFM. Experiments were performed using cells from passages 31 to 36. Once cells reached confluency, they were gently washed twice with DMEM/F-12 (Gibco™; Thermofisher Scientific; Waltham, Mass.) and incubated with an antimicrobial agent for 1 min (n=2 wells per group). Controls included 1×PBS (diluent) and 1% TX-100 (cell permeabilizer). After exposure to various agents, the cells were washed three times with DMEM/F-12, incubated with 0.2% Trypan Blue for 5 min, and washed again three times with DMEM/F-12. The remaining media was aspirated and replaced with 1×PBS for imaging. Macro-images of the culture plate were taken with a smartphone camera (iPhone 7; Apple Inc.; Cupertino, Calif.), and 10× images were taken with an inverted microscope (Eclipse TS100; Nikon; Tokyo, Japan) attached to a digital camera (SPOT Insight Fire Wire; Diagnostic Instruments Inc.; Sterling Heights, Mich.). 3-6 images/well were obtained in clockwise direction from areas immediately adjacent to the center of the well, and without overlapping areas. Images were quantified in ImageJ Fiji software to determine the amount of cell uptake of Trypan Blue. Macros were created from the Color Threshoulder plugin (G. Landini) to batch process the images after color matching in Photoshop to reference images per treatment group. % Area of Trypan Blue staining per image was calculated as follows: (area of blue/area of all)×100%.

[3] = tested on: F. solani (ATCC MYA-3636); test: In vitro time kill test, filamentous fungi; assay type: cell-based, Fusarium solani
Procedure: as §1
(§3) ii) Filamentous fungi: The antibiotic solutions, at either full or 1/10 strength, and antiseptics were inoculated with approximately 2×10^5-2×10^6 conidia/mL of F. solani or A. fumigatus in RPMI broth (buffered with MOPS at pH 7.0; Mediatech; Manassas, Va.) for 0-15 min. Conidia were collected by flooding the agar plates with 10 mL of sterile 1×PBS and 0.1% Tween® 20 (Sigma Aldrich; St Louis, Mo.). The solution was transferred to a sterile conical tube, and particles were allowed to settle for 10 min. The resulting supernatant was transferred to a new sterile conical tube and centrifuged at 3,000×g for 5 min. The supernatant was discarded, the remaining pellet was re-suspended in RPMI broth (buffered with MOPS at pH 7.0), and the OD600 was adjusted to 1.0. In the final test solutions, at each time point the inoculum was diluted 1:10 and neutralized in Dey-Engley neutralizing broth (Sigma-Aldrich; St Louis, Mo.). Neutralized cultures were then serially diluted and plated on Sabouraud dextrose agar (two serial 1:10 dilutions, 0.1 mL each) in technical duplicate. Viable conidia were counted and recorded following aerobic incubation for 48 hrs (or as soon as growth was visible) at 25-35° C.
as §2

[4] = tested on: A. fumigatus (ATCC MYA-3626); test: In vitro time kill test, filamentous fungi; assay type: cell-based, Aspergillus fumigatus; conditions: for Ratio fungicidal activity/cytotoxicity: FIG. 3, # of log10 reduction / fold-change in Trypan Blue staining vs PBS (HCLE), 1 min contact, A. fumigatus
Procedure: as §1, §3, §2

[5] = cited from earlier work
[6] = FIG. 1B, tenth dilution, within 120 min
[7] = full strength (10,000 u/mL PMB, 40 g/mL BAK, 1 mg/mL TMP), within 120 min
[8] = FIG. 1C, without BAK, MOX 5 mg/mL, GAT 5 mg/mL, CHL 5 mg/mL, VAN 14 mg/mL, within 120 min

| Compound | Antifungal / fungicidal activity in vitro [1] | Fungicidal activity (words) (C. albicans (ATCC 24433); [6]) | Fungicidal activity (words) (C. albicans (ATCC 24433); [7]) | Efficacy/toxicity ratio, overall rank [1] | Fungicidal activity (words) (C. albicans (ATCC 24433); [8]) | further results |
| --- | --- | --- | --- | --- | --- | --- |
| COc1cc(Cc2cnc(N)nc2N)cc(OC)c1OC [TMP, trimethoprim] | no effect; also recorded: ineffective | fungicidal activity was not observed | no effect | – | – | – |
| CCCCCCCCCCCCCC(=O)NCCCN(C)C [Aldox, myristamidopropyl dimethylamine] | rapid and broad fungicidal activity | – | – | rank lower than PI | – | Cytotoxicity / toxicity [2]: high cytotoxicity |
| COc1c(N2C[C@@H]3CCCN[C@@H]3C2)c(F)cc2c(=O)c(C(=O)O)cn(C3CC3)c12 [MOX, moxifloxacin] | no effect | – | – | – | no effect | – |
| COc1c(N2CCNC(C)C2)c(F)cc2c(=O)c(C(=O)O)cn(C3CC3)c12 (centres unmarked) [GAT, gatifloxacin] | no effect | – | – | – | fungicidal activity was not observed; also recorded: no effect | – |
| benzalkonium chloride [BAK] | moderate antifungal activity | fungicidal activity was not observed | comparable to the commercially prepared Polytrim® | – | – | Trypan Blue staining (% stained area per image) compared to control treatment TX-100 (1%) [2]: significantly lower amount of staining; Reduction in viable colonies (C. albicans (ATCC 24433); within 60 min): 2 log10; Reduction in viable colonies (C. albicans (ATCC 24433); within 120 min): 3 log10; Ratio fungicidal activity/cytotoxicity (C. albicans (ATCC 24433)): lowest ratio; Reduction in viable conidia ([3]; FIG. 2C, within 1 min of contact, Polytrim full strength, PI 0.5%, BAK 40 µg/mL, #3-IL 10 mM): 2 log10 |
| N=C(NCCCCCCNC(=N)NC(=N)Nc1ccc(Cl)cc1)NC(=N)Nc1ccc(Cl)cc1.O=C(O)[C@H](O)[C@@H](O)[C@H](O)[C@H](O)CO.O=C(O)[C@H](O)[C@@H](O)[C@H](O)[C@H](O)CO [CDG, chlorhexidine digluconate] | rapid and broad fungicidal activity; also recorded: effective | – | – | rank lower than PI | – | Ratio fungicidal activity/cytotoxicity [4]: lowest ratio; Cytotoxicity / toxicity [2]: high cytotoxicity; also recorded: too toxic; Contact time required for the same effect as PI and the novel IL (≥3 log10 reduction) (C. albicans (ATCC 24433); FIG. 2B, CDG 0.05%): 5 min |
| povidone iodine [PI] | rapid and potent fungicidal activity | – | – | good efficacy/toxicity ratio; also recorded: ranks second after the novel IL | – | Reduction in viable conidia ([4]; FIG. 2D, within 1 min, PI 0.5%, #3-IL 10 mM, CDG 0.05%): 2 log10; Ratio fungicidal activity/cytotoxicity [4]: highest ratios; Tolerability on instillation into the eye ([5]; 1% concentration): well tolerated; Tolerability on instillation into the eye ([5]; 5% solution): acutely painful; Tolerability / ocular safety (words) ([5]; clinical or long-term topical ocular use): ocular inflammation from long-term use has occurred; Trypan Blue staining (% stained area per image) compared to control treatment TX-100 (1%) [2]: significantly lower amount of staining; Ratio fungicidal activity/cytotoxicity (C. albicans (ATCC 24433)): highest ratios; Reduction (kill of C. albicans) (C. albicans (ATCC 24433); PI 0.01-0.1%, within 120 min): < 1 log; Reduction (kill of C. albicans) (C. albicans (ATCC 24433); PI 0.5-1%, within 1 min): ≥ 3 log; Ratio fungicidal activity/cytotoxicity ([3]; FIG. 3, # of log10 reduction / fold-change in Trypan Blue staining vs PBS (HCLE), 1 min contact, F. solani): highest ratios; also recorded: rank highest for F. solani |
| O=C(N[C@H](CO)[C@H](O)c1ccc([N+](=O)[O-])cc1)C(Cl)Cl [CHL, chloramphenicol] | no effect; also recorded: ineffective | – | – | – | fungicidal activity was not observed; also recorded: no effect | – |
| CN[C@H](CC(C)C)C(=O)N[C@H]1C(=O)N[C@@H](CC(N)=O)C(=O)N[C@H]2C(=O)N[C@H]3C(=O)N[C@H](C(=O)N[C@H](C(=O)O)c4cc(O)cc(O)c4-c4cc3ccc4O)[C@H](O)c3ccc(c(Cl)c3)Oc3cc2cc(c3O[C@@H]2O[C@H](CO)[C@@H](O)[C@H](O)[C@H]2O[C@H]2C[C@](C)(N)[C@H](O)[C@H](C)O2)Oc2ccc(cc2Cl)[C@H]1O [VAN, vancomycin] | no effect; also recorded: ineffective | – | – | – | fungicidal activity was not observed; also recorded: no effect | – |
| polymyxin B sulfate [PMB] | moderate antifungal activity | fungicidal activity was not observed | comparable to the commercially prepared Polytrim® | – | – | Reduction in viable colonies (C. albicans (ATCC 24433); within 60 min): 2 log10; Reduction in viable colonies (C. albicans (ATCC 24433); within 120 min): 3 log10 |
